Values quoted from earlier work, collected in publication PMC10307885, “A Phase 1/2 trial of SRA737 (a Chk1 inhibitor) administered orally in patients with advanced cancer” (British Journal of Cancer, 2023).

What was measured:
patients [1] = details: cited from earlier work
patients [2] = details: cited from earlier work; remark: listed apart in the source
[3] = in combination with standard dose gemcitabine

NC(=O)Nc1cc(-c2cccc(F)c2)sc1C(=O)N[C@H]1CCCNC1 [AZD7762]
toxicity that halted development (patients [1]; intravenously administered): cardiac toxicity including a drop in ejection fraction

N[C@@H]1CCCN(c2c(Br)cnc3[nH]cc(NC(=O)C4CC4)c23)C1 [GDC-0575]
Treatment-related neutropenia of NCI CTCAE Grade 3 or higher (patients [1]; [3]): 60 % of patients
treatment-related GI adverse events of all grades: diarrhoea (patients [1]; [3]): 18%
treatment-related GI adverse events of all grades: nausea (patients [1]; [3]): 43%
treatment-related GI adverse events of all grades: vomiting (patients [1]; [3]): 27%
partial or complete responses (patients [2]; used as a single agent): did not report partial or complete responses

COc1cccc(OCCCN)c1-c1cc(Nc2cnc(C#N)cn2)n[nH]1 [prexasertib]
rate of diarrhoea (patients [1]; intravenous, Phase 2 study): 20%
rate of nausea (patients [1]; intravenous, Phase 2 study): 36%
rate of vomiting (patients [1]; intravenous, Phase 2 study): 27%
efficacy in squamous anal and head and neck cancers (patients [2]; intravenous, Phase 1 study): partial responses
response rate (patients [2]; patients with high-grade serous ovarian cancers): 33%
